ChEMBL document CHEMBL1201862, “PubChem BioAssay data set” (2004)
The source made the active and inactive calls.

Tests used:
[1] = Counterscreen for activators of the function of SWI/SNF related, matrix associated, actin dependent regulator of chromatin, subfamily a, member 2 (SMARCA2, BRM): Luminescence-based cell-based high throughput dose response assay to identify non-selective compounds using the VP16 reporter assay.; assay type: functional
[2] = target: SWI/SNF-related matrix-associated actin-dependent regulator of chromatin subfamily A member 2 (Homo sapiens, UniProt P51531); assay: Luminescence-based cell-based high throughput dose response assay to identify activators of the function of SWI/SNF related, matrix associated, actin dependent regulator of chromatin, subfamily a, member 2 (SMARCA2, BRM).; assay type: functional
Estrogen receptor beta [3] = target: T1, Estrogen receptor beta (Homo sapiens, UniProt Q92731); assay: blockers of SRC-3 recruitment to ERβ – biochemical, ELISA, streptavidin-HRP readout, orthogonal assay, confirmation (AID 1060)
Estrogen receptor beta [4] = target: T1, Estrogen receptor beta
[5] = HEK-293T cell viability reduction – luminescence, B-cell screen hits, cytotoxicity control for BCR NF-kB inhibitor project, dose response (AID 489021); assay type: functional, cell-based;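 further: HEK-293T cells carrying an NF-kB luciferase reporter; cells exposed to compound for about 14 hours before viability readout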
[6] = target: Mitogen-activated protein kinase 10 (Homo sapiens, UniProt P53779); assay: Dose response biochemical screening assay for inhibitors of c-Jun N-Terminal Kinase 3 (JNK3). [Related pubchem assays: 746 ]
[7] = target: Eukaryotic translation initiation factor 4E (Mus musculus, UniProt P63073); assay: blockers of eIF4G binding by eIF4E – biochemical, TR-FRET, dose response (AID 855); assay type: functional;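 further: potency for disrupting eIF4E binding to eIF4GI seen as loss of FRET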
[8] = target: Voltage-dependent T-type calcium channel subunit alpha-1H (Homo sapiens, UniProt O95180); assay type: functional;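 further: channel activity triggered by adding a high calcium stimulation buffer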
[9] = alpha-synuclein stem-loop luciferase translation blockers – H4 neuroglioma cells, luminescence, confirmation (AID 1988); assay type: functional, cell-based
[10] = Luminescence Cell-Based Dose Response HTS to Identify Inhibitors of 5'UTR Stem-Loop Driven Prion Protein mRNA Translation in H4 Neuroglioblastoma Cells. [Related pubchem assays: 1827 (Project Summary), 1813 (Primary HTS)]; assay type: functional
Estrogen receptor = target: T2, Estrogen receptor (Homo sapiens, UniProt P03372);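 further: potency for inhibiting coactivator peptide recruitment to the receptor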
T2 sequence (P03372 whole entry): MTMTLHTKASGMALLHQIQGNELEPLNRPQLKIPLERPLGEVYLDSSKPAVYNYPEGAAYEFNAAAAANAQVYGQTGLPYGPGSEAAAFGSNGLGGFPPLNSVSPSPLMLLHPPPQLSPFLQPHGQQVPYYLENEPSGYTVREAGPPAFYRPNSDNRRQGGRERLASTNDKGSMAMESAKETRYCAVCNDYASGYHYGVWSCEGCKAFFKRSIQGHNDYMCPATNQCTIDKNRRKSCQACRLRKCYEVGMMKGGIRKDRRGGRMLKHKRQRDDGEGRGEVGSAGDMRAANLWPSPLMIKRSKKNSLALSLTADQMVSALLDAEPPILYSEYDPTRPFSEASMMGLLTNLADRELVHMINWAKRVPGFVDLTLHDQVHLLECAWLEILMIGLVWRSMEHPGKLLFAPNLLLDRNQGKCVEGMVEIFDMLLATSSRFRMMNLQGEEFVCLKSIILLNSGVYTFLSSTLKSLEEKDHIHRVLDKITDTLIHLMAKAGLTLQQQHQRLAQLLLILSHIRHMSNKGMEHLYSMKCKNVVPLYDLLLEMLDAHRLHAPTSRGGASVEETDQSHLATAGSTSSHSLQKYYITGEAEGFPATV

[11] = luciferase reporter signal suppression in cells – H4 neuroglioma cells, luminescence, dose response (AID 1990); assay type: functional, cell-based
Paired box protein Pax-8 = Paired box protein Pax-8 (Homo sapiens, UniProt Q06710); assay: PAX8 transcriptional activity inhibition in RMG-I – RMG-I cells, luciferase, cherry-pick, dose response (AID 687027); assay type: functional, cell-based;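 further: luciferase reporter driven by Pax8 target thyroperoxidase promoter measured by SteadyGlo luminescence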
[12] = general cell-killing toxicity readout – plate reader, dry powder samples, cytotoxicity control for PAX8 inhibitor project, dose response (AID 743021); assay type: functional, cell-based
[13] = general mammalian cell viability loss – activator set, cherry-pick, cytotoxicity control for miR-122 modulator project, dose response (AID 720690); assay type: functional, cell-based;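 further: HEK293T human cells scored for general mammalian cytotoxicity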
[14] = activation of miR-122 Renilla sensor silencing – cell-based, Huh7 psiCHECK-miR122, Renilla luciferase, cherry-picked, dose response (AID 651956); assay type: functional;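 further: huh7 hepatoma cells stably carrying a psiCHECK-2 miR-122 sensor plasmid; renilla luciferase signal reporting endogenous miR-122 activity after 48 h compound exposure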
cells [15] = assay type: functional, cell-based
cells [16] = assay type: functional, cell-based; remark: listed apart in the source
[17] = toxicity toward HepG2 liver cells – cell-based, plate reader, cherry-pick, antagonist series, cytotoxicity control, dose response (AID 743416); assay type: functional
[18] = A549 cell cytotoxicity, dose response, cytotoxicity control, plate reader, cherry-pick, antagonist series (AID 743412); assay type: functional, cell-based
[19] = target: T3, Replicative DNA helicase DnaB (Mycobacterium tuberculosis, UniProt P9WMR3); assay: DnaB intein splicing inhibitors, dose response, biochemical, cell-free fluorescence (AID 449749); assay type: functional
T3 sequence (P9WMR3 whole entry): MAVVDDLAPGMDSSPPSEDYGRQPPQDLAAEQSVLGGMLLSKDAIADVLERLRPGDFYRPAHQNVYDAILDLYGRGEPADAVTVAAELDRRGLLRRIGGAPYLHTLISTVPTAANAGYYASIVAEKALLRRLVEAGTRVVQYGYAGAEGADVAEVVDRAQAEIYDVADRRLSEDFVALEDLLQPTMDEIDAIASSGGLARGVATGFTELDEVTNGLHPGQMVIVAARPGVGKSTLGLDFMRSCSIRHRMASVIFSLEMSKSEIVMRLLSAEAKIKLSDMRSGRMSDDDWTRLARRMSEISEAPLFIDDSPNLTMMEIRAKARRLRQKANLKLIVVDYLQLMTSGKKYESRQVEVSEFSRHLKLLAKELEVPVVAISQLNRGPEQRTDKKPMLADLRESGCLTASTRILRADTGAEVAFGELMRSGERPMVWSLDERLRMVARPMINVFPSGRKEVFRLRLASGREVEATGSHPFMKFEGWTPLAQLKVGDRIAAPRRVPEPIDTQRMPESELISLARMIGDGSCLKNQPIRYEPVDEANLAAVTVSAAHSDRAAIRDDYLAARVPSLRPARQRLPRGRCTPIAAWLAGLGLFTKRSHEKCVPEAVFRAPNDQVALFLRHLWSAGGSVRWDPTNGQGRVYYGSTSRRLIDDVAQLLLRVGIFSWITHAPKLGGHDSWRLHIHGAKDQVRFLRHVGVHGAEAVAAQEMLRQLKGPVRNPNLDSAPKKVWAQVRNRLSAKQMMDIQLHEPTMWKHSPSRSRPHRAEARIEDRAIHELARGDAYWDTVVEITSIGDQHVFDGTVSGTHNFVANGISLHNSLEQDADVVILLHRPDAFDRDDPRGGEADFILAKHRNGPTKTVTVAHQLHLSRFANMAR

[20] = viability of PTEN-deleted HCT116 cells – cell-based, HCT116 PTEN knockout, dose response (AID 1047); assay type: functional;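 further: HCT116 colon tumor cells with PTEN knocked out; cells exposed to compound for 60 hours before readout; potency for loss of cell viability measured by luminescence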
[21] = Fluorescence-based cell-based high throughput dose response assay for inhibitors of the interaction of nucleotide-binding oligomerization domain containing 2 (NOD2) and the receptor-interacting serine-threonine kinase 2 (RIPK2).; assay type: functional, Homo sapiens; conditions: Homo sapiens
Vero [22] = assay: cells; assay type: functional, cell-based; conditions: Chlorocebus sabaeus
[23] = Luminescence Cell-Based Dose Retest to Confirm Inhibitors of Cancer Stem Cells. [Related pubchem assays (depositor defined):AID2717, AID2721]; assay type: functional; conditions: Homo sapiens
[24] = reduced cellular PGC1a acetyl-lysine signal – cell-based, cherry-picked samples, dose response (AID 720514); assay type: functional;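 further: potency may reflect raised or lowered acetylation signal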
Protein RecA = target: T4, Protein RecA (Mycobacterium tuberculosis, UniProt P9WHJ3); assay: Fluorescence Cell-Free Homogeneous Dose Retest to Identify Inhibitors of RecA-Intein Splicing Activity. [Related pubchem assays (depositor defined):AID2097, AID2223, AID489010, AID492950]; assay type: functional
T4 sequence (P9WHJ3 whole entry): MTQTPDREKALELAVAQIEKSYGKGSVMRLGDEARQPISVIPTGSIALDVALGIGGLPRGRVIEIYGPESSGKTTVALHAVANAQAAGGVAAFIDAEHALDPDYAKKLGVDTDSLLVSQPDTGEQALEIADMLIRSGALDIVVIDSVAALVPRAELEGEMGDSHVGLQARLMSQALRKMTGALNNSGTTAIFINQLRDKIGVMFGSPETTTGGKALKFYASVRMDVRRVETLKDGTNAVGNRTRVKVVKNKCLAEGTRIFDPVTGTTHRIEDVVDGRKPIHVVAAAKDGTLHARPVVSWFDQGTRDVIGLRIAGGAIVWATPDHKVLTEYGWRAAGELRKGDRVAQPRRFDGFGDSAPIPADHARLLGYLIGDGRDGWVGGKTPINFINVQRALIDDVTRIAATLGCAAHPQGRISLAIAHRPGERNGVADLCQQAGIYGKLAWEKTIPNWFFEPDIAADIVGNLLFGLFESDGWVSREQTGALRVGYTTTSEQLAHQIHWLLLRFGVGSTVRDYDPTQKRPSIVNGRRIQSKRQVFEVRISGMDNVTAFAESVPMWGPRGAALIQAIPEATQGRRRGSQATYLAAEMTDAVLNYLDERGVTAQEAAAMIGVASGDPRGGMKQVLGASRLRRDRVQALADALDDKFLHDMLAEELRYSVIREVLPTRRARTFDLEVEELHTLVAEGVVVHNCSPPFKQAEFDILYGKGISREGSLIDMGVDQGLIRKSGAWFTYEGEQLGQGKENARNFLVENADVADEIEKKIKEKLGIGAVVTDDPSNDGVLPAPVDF

[25] = viability of HCT116 lacking mutant beta-catenin – cell-based, human colon tumor, dose response (AID 1045); assay type: functional;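 further: HCT116 colon tumor cells with beta catenin knocked out; cells exposed to compound for 60 hours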
Vero [26] = assay: cells; assay type: functional; conditions: Chlorocebus sabaeus
INS1 = assay: INS-1E survival protection against cytokine death – cell-based, luminescence, retest, dose response (AID 449756); assay type: functional; conditions: Rattus norvegicus;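 further: cell death triggered by IL-1 beta plus TNF-alpha plus IFN-gamma mixture; protective hits raise ATP signal compared with cytokine alone wells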

Sequence of SWI/SNF-related matrix-associated actin-dependent regulator of chromatin subfamily A member 2 (P51531 whole entry): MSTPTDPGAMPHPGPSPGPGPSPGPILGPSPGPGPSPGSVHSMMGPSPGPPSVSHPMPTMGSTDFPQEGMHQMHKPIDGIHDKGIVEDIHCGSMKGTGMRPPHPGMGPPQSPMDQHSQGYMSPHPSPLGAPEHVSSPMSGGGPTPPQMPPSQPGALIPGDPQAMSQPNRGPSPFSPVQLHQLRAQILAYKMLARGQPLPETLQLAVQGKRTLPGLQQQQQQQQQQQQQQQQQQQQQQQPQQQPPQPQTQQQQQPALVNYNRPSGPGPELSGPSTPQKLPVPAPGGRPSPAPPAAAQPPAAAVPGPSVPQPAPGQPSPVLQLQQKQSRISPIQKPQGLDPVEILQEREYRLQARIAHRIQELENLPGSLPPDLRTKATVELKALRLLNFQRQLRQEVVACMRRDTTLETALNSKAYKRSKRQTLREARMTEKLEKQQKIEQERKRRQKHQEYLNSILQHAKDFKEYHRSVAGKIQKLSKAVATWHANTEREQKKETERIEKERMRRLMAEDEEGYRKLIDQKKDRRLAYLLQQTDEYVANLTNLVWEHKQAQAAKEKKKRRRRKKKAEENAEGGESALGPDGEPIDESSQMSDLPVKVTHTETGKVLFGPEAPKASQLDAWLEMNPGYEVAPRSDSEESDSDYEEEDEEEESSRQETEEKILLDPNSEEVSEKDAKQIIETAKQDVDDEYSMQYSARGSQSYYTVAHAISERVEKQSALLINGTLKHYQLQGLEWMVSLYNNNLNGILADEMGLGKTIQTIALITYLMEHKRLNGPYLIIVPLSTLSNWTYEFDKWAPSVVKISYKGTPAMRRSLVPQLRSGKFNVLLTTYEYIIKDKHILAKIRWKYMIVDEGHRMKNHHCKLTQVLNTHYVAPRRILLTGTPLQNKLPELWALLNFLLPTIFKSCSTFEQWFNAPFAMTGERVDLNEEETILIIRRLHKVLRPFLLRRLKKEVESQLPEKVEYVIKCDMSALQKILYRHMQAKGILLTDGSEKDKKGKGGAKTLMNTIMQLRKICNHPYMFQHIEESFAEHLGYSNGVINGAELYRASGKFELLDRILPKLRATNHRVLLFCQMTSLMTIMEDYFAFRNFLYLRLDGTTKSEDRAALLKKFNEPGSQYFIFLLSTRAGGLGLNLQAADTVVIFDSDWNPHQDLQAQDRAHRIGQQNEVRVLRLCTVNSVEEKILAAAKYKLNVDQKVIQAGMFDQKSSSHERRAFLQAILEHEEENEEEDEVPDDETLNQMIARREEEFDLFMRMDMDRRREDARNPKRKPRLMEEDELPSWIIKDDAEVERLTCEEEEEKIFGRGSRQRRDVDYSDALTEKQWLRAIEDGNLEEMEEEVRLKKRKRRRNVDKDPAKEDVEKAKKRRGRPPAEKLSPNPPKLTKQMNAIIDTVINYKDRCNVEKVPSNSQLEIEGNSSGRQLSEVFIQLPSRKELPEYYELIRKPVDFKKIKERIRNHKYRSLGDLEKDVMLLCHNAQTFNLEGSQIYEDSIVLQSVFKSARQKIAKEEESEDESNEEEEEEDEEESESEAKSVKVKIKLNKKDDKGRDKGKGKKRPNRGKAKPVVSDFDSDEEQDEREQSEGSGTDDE
T1 sequence (Q92731 whole entry): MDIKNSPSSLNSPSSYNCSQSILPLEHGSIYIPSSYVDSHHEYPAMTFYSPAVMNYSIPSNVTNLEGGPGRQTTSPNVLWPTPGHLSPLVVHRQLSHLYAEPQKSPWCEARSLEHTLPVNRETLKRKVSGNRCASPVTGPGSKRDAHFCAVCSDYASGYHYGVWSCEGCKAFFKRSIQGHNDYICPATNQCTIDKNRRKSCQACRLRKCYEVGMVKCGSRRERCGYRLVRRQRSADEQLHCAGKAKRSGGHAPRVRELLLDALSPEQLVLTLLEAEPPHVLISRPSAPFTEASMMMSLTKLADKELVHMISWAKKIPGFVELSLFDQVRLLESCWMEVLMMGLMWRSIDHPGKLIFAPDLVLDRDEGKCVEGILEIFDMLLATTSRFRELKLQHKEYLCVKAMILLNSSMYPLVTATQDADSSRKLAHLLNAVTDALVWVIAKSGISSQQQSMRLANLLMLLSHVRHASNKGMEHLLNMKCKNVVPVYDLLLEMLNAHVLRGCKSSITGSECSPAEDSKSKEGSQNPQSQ
Sequence of Mitogen-activated protein kinase 10 (P53779 whole entry): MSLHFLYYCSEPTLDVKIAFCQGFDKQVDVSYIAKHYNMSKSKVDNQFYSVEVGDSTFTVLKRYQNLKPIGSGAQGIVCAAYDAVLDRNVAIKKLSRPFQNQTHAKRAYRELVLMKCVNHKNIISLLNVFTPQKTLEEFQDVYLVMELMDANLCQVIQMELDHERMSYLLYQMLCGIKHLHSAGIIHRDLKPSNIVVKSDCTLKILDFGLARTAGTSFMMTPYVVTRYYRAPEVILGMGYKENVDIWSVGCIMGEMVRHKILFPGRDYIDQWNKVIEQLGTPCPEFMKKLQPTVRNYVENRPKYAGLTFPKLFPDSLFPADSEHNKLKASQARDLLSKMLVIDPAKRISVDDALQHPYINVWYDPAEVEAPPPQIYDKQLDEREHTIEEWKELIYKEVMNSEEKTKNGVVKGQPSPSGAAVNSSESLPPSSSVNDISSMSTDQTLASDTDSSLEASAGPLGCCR
Sequence of Paired box protein Pax-8 (Q06710 whole entry): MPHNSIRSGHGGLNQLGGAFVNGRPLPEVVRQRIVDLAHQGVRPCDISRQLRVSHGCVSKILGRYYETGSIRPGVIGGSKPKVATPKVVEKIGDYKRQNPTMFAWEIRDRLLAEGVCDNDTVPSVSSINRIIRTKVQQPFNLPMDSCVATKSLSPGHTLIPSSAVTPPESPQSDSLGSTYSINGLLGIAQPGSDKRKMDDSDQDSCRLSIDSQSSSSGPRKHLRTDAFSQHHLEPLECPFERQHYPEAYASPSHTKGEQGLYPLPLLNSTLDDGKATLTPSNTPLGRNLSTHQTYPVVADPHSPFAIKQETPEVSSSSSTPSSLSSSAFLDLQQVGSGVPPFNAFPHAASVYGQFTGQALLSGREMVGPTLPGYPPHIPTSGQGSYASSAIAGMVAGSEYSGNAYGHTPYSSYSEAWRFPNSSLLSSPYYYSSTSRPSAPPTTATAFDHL
Sequence of Eukaryotic translation initiation factor 4E (P63073 whole entry): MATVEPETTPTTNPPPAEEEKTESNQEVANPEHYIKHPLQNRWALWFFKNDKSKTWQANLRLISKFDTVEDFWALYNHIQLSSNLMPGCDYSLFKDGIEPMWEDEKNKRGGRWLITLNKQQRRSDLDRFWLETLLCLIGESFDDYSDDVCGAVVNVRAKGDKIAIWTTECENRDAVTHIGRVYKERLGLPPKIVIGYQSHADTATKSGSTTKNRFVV

COc1cccc(CNC(=O)COC(=O)c2nc(Cl)c(Cl)c(Cl)c2Cl)c1
EC50 [1]: > 91.2 µM (inactive) | EC50 [2]: > 91.2 µM (inactive)

CC(C)(C)OC(=O)N1CCN(c2ccc(NC(=O)Cn3nnc(-c4ccccc4)n3)cc2)CC1
IC50 (Estrogen receptor beta [3]): 2.7 µM (not active) | IC50 (Estrogen receptor beta [4]): 6.06 µM (active)

COC(=O)c1[nH]c2ccc(C)cc2c1NC(=O)Nc1ccccc1OC
IC50 [5]: > 80 µM (inactive)

CN(c1ccc(C(=O)Nc2nccs2)cc1)S(=O)(=O)c1ccccc1
IC50 [6]: 46.9 µM (not active)

CCOc1ccc(NC(=O)CCCc2cc(-c3ccc(OCC)cc3)on2)cc1
IC50 [5]: > 80 µM (inactive)

Cn1c(C(C)(O)C(O)c2ccccc2)nc2ccccc21 (configuration not stated)
IC50 [7]: > 64 µM (inactive)

CS(=O)(=O)N1CCN(c2ccccc2NC(=O)CSc2ccc(Cl)cc2)CC1
IC50 [6]: 90.5 µM (not active) | EC50 [8]: 7.39 µM (active)

CC(=O)c1c(COC(=O)c2ccco2)nc2ccccc2[n+]1[O-]
EC50 [9]: > 120 µM (not active) | EC50 [10]: > 120 µM (not active) | IC50 (Estrogen receptor): 29.2 µM (active) | EC50 [11]: > 120 µM (not active) | IC50 (Estrogen receptor beta [3]): < 77 µM (not active) | IC50 (Estrogen receptor beta [4]): 10.8 µM (active)

Cc1ccc(Cl)cc1N1CCN(C(=O)c2noc(C)c2[N+](=O)[O-])CC1
AC50 (Paired box protein Pax-8): 6.41 µM (active) | AC50 [12]: 43.2 µM (active)

c1ccc2[nH]c3c4ccccc4nc-3nc2c1
IC50 [6]: 13.9 µM (not active)

CCN(C[C@@H]1N[C@@H](CO)[C@H]1c1ccc(-c2cccc(F)c2)cc1)C(=O)CN(C)C
AC50 [13]: 25.7 µM (active) | AC50 [14]: 13 µM (active)

CCn1nnc(NC(=O)CSc2ccc(Cl)cc2)n1
IC50 (Estrogen receptor): 9.27 µM (active) | IC50 (Estrogen receptor beta [3]): > 109 µM (not active) | IC50 (Estrogen receptor beta [4]): 4.65 µM (active)

Cc1c(C#N)c(O)n(CCO)c(=O)c1CN1CCCC(C)C1 (configuration not stated)
EC50 (cells [15]): > 29.9 µM (inactive) | IC50 (cells [16]): > 29.9 µM (inactive)

CC(=O)c1cccc(S(=O)(=O)NCC2CCCCC2)c1
AC50 [14]: 5.36 µM (active)

Cc1ccc(S(=O)(=O)Nc2ccc3c(c2)C(=O)N([C@H](C)CO)C[C@@H](C)[C@H](CN(C)S(=O)(=O)c2cccs2)OCCCC[C@@H](C)O3)cc1
AC50 [17]: > 52 µM (inactive) | AC50 [18]: 32.1 µM (active)

O=C1NC2=C(C(=O)c3ccccc32)C(c2ccccc2)N1 (configuration not stated)
IC50 [6]: 38.3 µM (not active)

O=C(NCc1cccnc1)/C(=C\c1ccc(-c2cccc(Cl)c2)o1)S(=O)(=O)c1ccccc1
AC50 [19]: 13.7 µM (active) | EC50 [20]: 3.2 µM (active) | IC50 [21]: 10.8 µM (inactive) | IC50 (Vero [22]): 22.8 µM (active) | AC50 [23]: 2.35 µM (active) | AC50 [24]: 15 µM (active) | EC50 (Protein RecA): 17.8 µM (active) | EC50 [25]: 2.86 µM (active) | CC50 (Vero [26]): 9.17 µM (active) | AC50 (INS1): 7.76 µM (active)

CCC(=O)N(C)C[C@H]1Oc2cc(C#CC3CCCCC3)ccc2S(=O)(=O)N([C@@H](C)CO)C[C@H]1C
AC50 [13]: 27.7 µM (active) | AC50 [14]: 7.88 µM (active)

Cc1nccc(-c2cc(-c3ccc(Cl)cc3Cl)no2)n1
EC50 [1]: > 91.2 µM (inactive) | EC50 [2]: > 91.2 µM (inactive)

N#C[C@H]1[C@@H](c2ccc(C3=CCCCC3)cc2)[C@H](CO)N1C(=O)c1ccccn1
AC50 [17]: 34.2 µM (active)

Cc1nnc(SCc2nc3ccccc3s2)n1N
EC50 [1]: > 91.1 µM (inactive) | EC50 [2]: > 91.1 µM (inactive)
